{
  "source": "patent US20090098072A1",
  "about": "“ANTIOXIDANTS” (priority 2006, published 2009)",
  "assay": "Photoconversion test (absorption at 300 nm after solar simulator irradiation)",
  "assay_type": "physicochemical",
  "experimental": "A 4% solution of the substance in isopropyl myristate is prepared. In each case, 40 μl of the solution are applied to the roughened surface of 2 acrylic glass plates (7.2×2.5 cm). One plate is subsequently irradiated in a solar simulator (Atlas CPS+) for 1 h 50 min with cooling. The sample is subsequently transferred into a 50 ml measuring cylinder and covered with 40 ml of isopropanol for extraction in the ultrasound bath. The sample volume is subsequently made up to precisely 50 ml, and the absorption is measured at 300 nm. An unirradiated batch treated analogously serves as comparison. The absorption can be increased by 22% from 0.094 (dark batch) to 0.115 by the irradiation step.",
  "data": [
    {"smiles": "Cc1ccc(CC2C(=O)C3(C)CCC2C3(C)C)cc1", "note": "(stereo not drawn) [Example 1, 1,7,7-trimethyl-3-(4-methylbenzyl)-bicyclo-[2.2.1]heptan-2-one]", "values": [
      {"measurement": "absorption at 300 nm, unirradiated (dark batch)", "setting": "4% solution in isopropyl myristate, 40 μl on acrylic glass plate, extracted with isopropanol to 50 ml, not irradiated", "value": 0.094},
      {"measurement": "absorption at 300 nm after irradiation", "setting": "4% solution in isopropyl myristate, 40 μl on acrylic glass plate, solar simulator (Atlas CPS+) 1 h 50 min, extracted with isopropanol to 50 ml", "value": 0.115},
      {"measurement": "increase of absorption at 300 nm by the irradiation step", "setting": "irradiated 1 h 50 min vs dark batch", "value": 22, "unit": "%"}
    ]}
  ]
}
